Assay results reported in the supplement of paper PMC11061612.

Tests used:
AZD2811 = compound: CCN(CCO)CCCOc1ccc2c(Nc3cc(CC(=O)Nc4cccc(F)c4)[nH]n3)ncnc2c1 [AZD2811]; settings: max 1 µM
In short: (§1)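 Cancer cell lines were seeded into 1536-well plates in 7.5 μl medium (DMEM/F12 or RPMI, 10% FBS), held 24 hours at 37°C and 5% CO2, and dosed for 72 hours with final DMSO typically 0.2%. Luminescence from CellTiter-Glo 2.0, scaled between blank-well and DMSO-well means, served as viability. The single-agent IC50 was obtained from dose-response fits with a non-linear mixed effects model, each fit being a two-parameter logistic curve.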

Crizotinib = compound: C[C@@H](Oc1cc(-c2cnn(C3CCNCC3)c2)cnc1N)c1c(Cl)ccc(F)c1Cl [Crizotinib]; settings: max 10 µM
In short: as §1

AZD4320 = compound: CN(CC[C@H](CSC1=CC=CC=C1)NC2=C(C=C(C=C2)S(=O)(=O)NC(=O)C3=CC=C(C=C3)N4CCC(CC4)[C@H](C5=CC=CC=C5C6=CC=C(C=C6)Cl)O)S(=O)(=O)C(F)(F)F)CCO [AZD4320]; settings: max 1 µM
In short: as §1

[1] = compound: O=C(Nc1ccc2[nH]nc(-c3ccncc3)c2c1)[C@@H]1CCN(CC(=O)N2CCN(c3ccc(-c4ncccn4)cc3)CC2)C1; settings: max 5 µM
In short: as §1

AZD6738 = compound: C[C@@H]1COCCN1C2=NC(=NC(=C2)C3(CC3)[S@](=N)(=O)C)C4=C5C=CNC5=NC=C4 [AZD6738]; settings: max 10 µM
In short: as §1

SN-38 = compound: CCc1c2c(nc3ccc(O)cc13)-c1cc3c(c(=O)n1C2)COC(=O)[C@]3(O)CC [SN-38]; settings: max 0.3 µM
In short: as §1

AZD0156 = compound: CN(C)CCCOc1ccc(-c2ccc3ncc4c(c3c2)n(C2CCOCC2)c(=O)n4C)cn1 [AZD0156]; settings: max 3 µM
In short: as §1

Prexasertib = compound: COc1cccc(OCCCN)c1-c1cc(Nc2cnc(C#N)cn2)n[nH]1 [Prexasertib]; settings: max 1 µM
In short: as §1

Venetoclax = compound: CC1(C)CCC(CN2CCN(c3ccc(C(=O)NS(=O)(=O)c4ccc(NCC5CCOCC5)c([N+](=O)[O-])c4)c(Oc4cnc5[nH]ccc5c4)c3)CC2)=C(c2ccc(Cl)cc2)C1 [Venetoclax]; settings: max 1 µM
In short: as §1

Savolitinib = compound: C[C@@H](c1ccc2nccn2c1)n1nnc2ncc(-c3cnn(C)c3)nc21 [Savolitinib]; settings: max 1 µM
In short: as §1

MK-2206 = compound: NC1(c2ccc(-c3nc4ccn5c(=O)[nH]nc5c4cc3-c3ccccc3)cc2)CCC1 [MK-2206]; settings: max 10 µM
In short: as §1

Paclitaxel = compound: CC(=O)O[C@H]1C(=O)[C@@]2(C)[C@H]([C@H](OC(=O)c3ccccc3)[C@]3(O)C[C@H](OC(=O)[C@H](O)[C@@H](NC(=O)c4ccccc4)c4ccccc4)C(C)=C1C3(C)C)[C@]1(OC(C)=O)CO[C@@H]1C[C@@H]2O [Paclitaxel]; settings: max 3 µM
In short: as §1

Palbociclib = compound: CC(=O)c1c(C)c2cnc(Nc3ccc(N4CCNCC4)cn3)nc2n(C2CCCC2)c1=O [Palbociclib]; settings: max 10 µM
In short: as §1

AZD5991 = compound: Cc1c2c(nn1C)CSCc1cc(n(C)n1)CSc1cc(c3ccccc3c1)OCCCc1c(C(=O)O)n(C)c3c-2c(Cl)ccc13 [AZD5991]; settings: max 1 µM
In short: as §1

5-Fluorouracil = compound: O=c1[nH]cc(F)c(=O)[nH]1 [5-Fluorouracil]; settings: max 20 µM
In short: as §1

Dasatinib = compound: CC1=C(C(=CC=C1)Cl)NC(=O)C2=CN=C(S2)NC3=CC(=NC(=N3)C)N4CCN(CC4)CCO [Dasatinib]; settings: max 2 µM
In short: as §1

Taselisib = compound: Cc1nc(-c2cn3c(n2)-c2ccc(-c4cnn(C(C)(C)C(N)=O)c4)cc2OCC3)n(C(C)C)n1 [Taselisib]; settings: max 10 µM
In short: as §1

AZD5363 = compound: C1CN(CCC1(C(=O)N[C@@H](CCO)C2=CC=C(C=C2)Cl)N)C3=NC=NC4=C3C=CN4 [AZD5363]; settings: max 10 µM
In short: as §1

Olaparib = compound: O=C(c1cc(Cc2n[nH]c(=O)c3ccccc23)ccc1F)N1CCN(C(=O)C2CC2)CC1 [Olaparib]; settings: max 10 µM
In short: as §1

Lapatinib = compound: CS(=O)(=O)CCNCc1ccc(-c2ccc3ncnc(Nc4ccc(OCc5cccc(F)c5)c(Cl)c4)c3c2)o1 [Lapatinib]; settings: max 10 µM
In short: as §1

Selumetinib = compound: Cn1cnc2c(F)c(Nc3ccc(Br)cc3Cl)c(C(=O)NOCCO)cc21 [Selumetinib]; settings: max 10 µM
In short: as §1

AZD1775 = compound: C=CCn1c(=O)c2cnc(Nc3ccc(N4CCN(C)CC4)cc3)nc2n1-c1cccc(C(C)(C)O)n1 [AZD1775]; settings: max 3 µM
In short: as §1

AZD8186 = compound: C[C@@H](Nc1cc(F)cc(F)c1)c1cc(C(=O)N(C)C)cc2c(=O)cc(N3CCOCC3)oc12 [AZD8186]; settings: max 10 µM
In short: as §1

AZD5153 = compound: COc1nnc2ccc(N3CCC(c4ccc(OCCN5CCN(C)C(=O)[C@H]5C)cc4)CC3)nn12 [AZD5153]; settings: max 1 µM
In short: as §1

AZD7648 = compound: Cc1cc2ncnn2cc1Nc1ncc2c(n1)n(C1CCOCC1)c(=O)n2C [AZD7648]; settings: max 10 µM
In short: as §1

SG3199 = compound: CC1=CN2[C@@H](C1)C=NC3=CC(=C(C=C3C2=O)OC)OCCCCCOC4=C(C=C5C(=C4)N=C[C@@H]6CC(=CN6C5=O)C)OC [SG3199]; settings: max 0.001 µM
In short: as §1

Alisertib = compound: COc1cc(Nc2ncc3c(n2)-c2ccc(Cl)cc2C(c2c(F)cccc2OC)=NC3)ccc1C(=O)O [Alisertib]; settings: max 10 µM
In short: as §1

Gemcitabine = compound: Nc1ccn([C@@H]2O[C@H](CO)[C@@H](O)C2(F)F)c(=O)n1 [Gemcitabine]; settings: max 0.3 µM
In short: as §1

Carboplatin = compound: C1CC(C1)(C(=O)[O-])C(=O)[O-].N.N.[Pt+2] [Carboplatin]; settings: max 10 µM
In short: as §1

AZD1390 = compound: CC(C)n1c(=O)n(C)c2cnc3cc(F)c(-c4ccc(OCCCN5CCCCC5)nc4)cc3c21 [AZD1390]; settings: max 0.3 µM
In short: as §1

Etoposide = compound: COc1cc([C@@H]2c3cc4c(cc3[C@@H](O[C@@H]3O[C@@H]5CO[C@@H](C)O[C@H]5[C@H](O)[C@H]3O)[C@H]3COC(=O)[C@H]23)OCO4)cc(OC)c1O [Etoposide]; settings: max 10 µM
In short: as §1

Trametinib = compound: CC(=O)Nc1cccc(-n2c(=O)n(C3CC3)c(=O)c3c(Nc4ccc(I)cc4F)n(C)c(=O)c(C)c32)c1 [Trametinib]; settings: max 1 µM
In short: as §1

SRA737 = compound: N#Cc1cnc(Nc2cc(NC[C@H]3CNCCO3)c(C(F)(F)F)cn2)cn1 [SRA737]; settings: max 10 µM
In short: as §1

Doxorubicin = compound: COc1cccc2c1C(=O)c1c(O)c3c(c(O)c1C2=O)C[C@@](O)(C(=O)CO)C[C@@H]3O[C@H]1C[C@H](N)[C@H](O)[C@H](C)O1 [Doxorubicin]; settings: max 1 µM
In short: as §1

Gefitinib = compound: COc1cc2ncnc(Nc3ccc(F)c(Cl)c3)c2cc1OCCCN1CCOCC1 [Gefitinib]; settings: max 10 µM
In short: as §1

| Cell Line | IC50, cell viability 72 h (AZD2811) | IC50, cell viability 72 h (Crizotinib) | IC50, cell viability 72 h (AZD4320) | IC50, cell viability 72 h [1] | IC50, cell viability 72 h (AZD6738) | IC50, cell viability 72 h (SN-38) | IC50, cell viability 72 h (AZD0156) | IC50, cell viability 72 h (Prexasertib) | IC50, cell viability 72 h (Venetoclax) | IC50, cell viability 72 h (Savolitinib) | IC50, cell viability 72 h (MK-2206) | IC50, cell viability 72 h (Paclitaxel) | IC50, cell viability 72 h (Palbociclib) | IC50, cell viability 72 h (AZD5991) | IC50, cell viability 72 h (5-Fluorouracil) | IC50, cell viability 72 h (Dasatinib) | IC50, cell viability 72 h (Taselisib) | IC50, cell viability 72 h (AZD5363) | IC50, cell viability 72 h (Olaparib) | IC50, cell viability 72 h (Lapatinib) | IC50, cell viability 72 h (Selumetinib) | IC50, cell viability 72 h (AZD1775) | IC50, cell viability 72 h (AZD8186) | IC50, cell viability 72 h (AZD5153) | IC50, cell viability 72 h (AZD7648) | IC50, cell viability 72 h (SG3199) | IC50, cell viability 72 h (Alisertib) | IC50, cell viability 72 h (Gemcitabine) | IC50, cell viability 72 h (Carboplatin) | IC50, cell viability 72 h (AZD1390) | IC50, cell viability 72 h (Etoposide) | IC50, cell viability 72 h (Trametinib) | IC50, cell viability 72 h (SRA737) | IC50, cell viability 72 h (Doxorubicin) | IC50, cell viability 72 h (Gefitinib) |
| --- | --- | --- | --- | --- | --- | --- | --- | --- | --- | --- | --- | --- | --- | --- | --- | --- | --- | --- | --- | --- | --- | --- | --- | --- | --- | --- | --- | --- | --- | --- | --- | --- | --- | --- | --- |
| KYSE-220 (Esophageal Squamous Cell Carcinoma) | > 1000 nM | 5480 nM | > 1000 nM | > 5000 nM | 1190 nM | 17.5 nM | > 3000 nM | 16.3 nM | > 1000 nM | > 1000 nM | > 10000 nM | 42.4 nM | > 10000 nM | > 1000 nM | > 20000 nM | > 2000 nM | 1220 nM | > 10000 nM | > 10000 nM | 4250 nM | 9200 nM | 355 nM | > 10000 nM | 358 nM | > 10000 nM | > 1 nM | 9200 nM | 33 nM | > 10000 nM | > 300 nM | 2520 nM | 287 nM | > 10000 nM | 94.3 nM | > 10000 nM |
| LU-165 (Small Cell Lung Carcinoma) | > 1000 nM | > 10000 nM | > 1000 nM | > 5000 nM | > 10000 nM | > 300 nM | > 3000 nM | 220 nM | > 1000 nM | > 1000 nM | > 10000 nM | > 3000 nM | > 10000 nM | > 1000 nM | > 20000 nM | > 2000 nM | > 10000 nM | > 10000 nM | > 10000 nM | > 10000 nM | > 10000 nM | 2940 nM | > 10000 nM | > 1000 nM | > 10000 nM | > 1 nM | > 10000 nM | > 300 nM | > 10000 nM | > 300 nM | > 10000 nM | > 1000 nM | > 10000 nM | > 1000 nM | > 10000 nM |
| MDA-MB-436 (Breast Carcinoma) | > 1000 nM | > 10000 nM | > 1000 nM | > 5000 nM | > 10000 nM | 207 nM | > 3000 nM | > 1000 nM | > 1000 nM | > 1000 nM | > 10000 nM | > 3000 nM | > 10000 nM | > 1000 nM | > 20000 nM | > 2000 nM | > 10000 nM | > 10000 nM | > 10000 nM | > 10000 nM | > 10000 nM | > 3000 nM | > 10000 nM | > 1000 nM | > 10000 nM | > 1 nM | > 10000 nM | > 300 nM | > 10000 nM | > 300 nM | > 10000 nM | > 1000 nM | > 10000 nM | > 1000 nM | > 10000 nM |
| MHH-ES-1 (Ewing's Sarcoma) | 215 nM | 3990 nM | > 1000 nM | > 5000 nM | > 10000 nM | 3.05 nM | > 3000 nM | 212 nM | > 1000 nM | > 1000 nM | > 10000 nM | 5.4 nM | > 10000 nM | > 1000 nM | > 20000 nM | > 2000 nM | 5810 nM | > 10000 nM | 4150 nM | > 10000 nM | > 10000 nM | 649 nM | > 10000 nM | 614 nM | > 10000 nM | > 1 nM | 319 nM | 15.9 nM | > 10000 nM | > 300 nM | 2700 nM | > 1000 nM | > 10000 nM | 425 nM | > 10000 nM |
| NCI-H441 (Lung Adenocarcinoma) | > 1000 nM | > 10000 nM | > 1000 nM | > 5000 nM | > 10000 nM | 112 nM | > 3000 nM | 666 nM | > 1000 nM | > 1000 nM | > 10000 nM | 2240 nM | > 10000 nM | > 1000 nM | > 20000 nM | > 2000 nM | > 10000 nM | > 10000 nM | > 10000 nM | > 10000 nM | > 10000 nM | > 3000 nM | > 10000 nM | > 1000 nM | > 10000 nM | > 1 nM | > 10000 nM | 299 nM | > 10000 nM | > 300 nM | > 10000 nM | > 1000 nM | > 10000 nM | > 1000 nM | > 10000 nM |
